Here are results for two compounds from article PMC3820767, “Turning Defense into Offense: Defensin Mimetics as Novel Antibiotics Targeting Lipid II” (PLoS Pathogens, 2013).

In general, MIC refers to the smallest concentration in the dilution series that meets the test's criterion for growth inhibition.

The test system of data set [1] is Escherichia coli ATCC 25922. The experiment in a line: Antibacterial killing, 96-well turbidimetric (modified vCC) assay. It is filed as cell-based. The following applies: for active against E.coli (IC100%): Table S3, concentration at which 100% killing occurred, no bacterial regrowth, No = not active; for Bacterial Killing E. coli: concentration resulting in 100% killing after 30 min exposure, modified vCC assay. Summed up:
(§1)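 CLSI broth microdilution gave MICs for the pneumococcal strains. Killing of S. aureus and E. coli used a modified turbidimetric format: a 30 min exposure in phosphate buffer (10 mM, 5% DMSO) preceded 2× Mueller-Hinton addition.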

For data set [2], the system named is Staphylococcus aureus ATCC 29213. The description is as above. It is filed as cell-based. The following applies: concentration resulting in 100% killing after 30 min exposure, modified vCC assay. Summed up:
as §1

The nature of data set [3]: Cytotoxicity by MTT assay. Format: cell-based, human. The following applies: human, Caco-2 cells; concentration resulting in 50% cell survival, MTT, 24 h; read-out: Cytotoxicity (C50%) Caco-2. In general terms: Tetrazolium assays rely on reduction of a dye to a coloured formazan, in cell work by metabolically active cells.
The nature of data set [4]: Cytotoxicity by MTT assay. It is filed as cell-based, human. Conditions: human, Jurkat cells; concentration resulting in 50% cell survival, MTT, 4 h; read-out: Cytotoxicity (C50%) Jurkat.
Data set [5] concerns Streptococcus pneumonia (PRSP) MMX884. The data set can be described thus: Broth microdilution susceptibility testing (CLSI). It is filed as cell-based, Streptococcus pneumoniae. Conditions: Streptococcus pneumoniae, PRSP, read-out: MIC Streptococcus pneumonia (PRSP) 884-NA. The method, then: (§2) The antibacterial activity of defensin mimetics against Staphylococcus aureus ATCC 29213 and Escherichia coli 25922 was carried out in a 96-well turbidimetric assay essentially as described previously with the following modifications: bacteria were exposed for 30 min to compounds in 10 mM phosphate buffer containing 5% DMSO prior to addition of 2× Muller-Hinton medium. Bacterial growth was monitored for 12 hours and data were analyzed as described. Determination of MICs was performed by Micromyx, LLC (Kalamazoo, Michigan) according to CLSI standards.

The test system of data set [6] is Enterococcus faecalis (VRE) MMX848. The experiment in a line: Broth microdilution susceptibility testing (CLSI). Format: cell-based. The following applies: Enterococcus faecalis, VRE, read-out: MIC Enterococcus faecalis (VRE) 848-NA. As to the method:
as §2
For orientation: Broth dilution looks for growth in wells or tubes with falling amounts of substance.

Data set [7] deals with Enterococcus faecalis MMX101-ATCC 29212. The experiment in a line: Broth microdilution susceptibility testing (CLSI). Format: cell-based. Conditions: Enterococcus faecalis, ATCC29212, read-out: MIC Enterococcus faecalis 101-29212. The method, then:
as §2

Data set [8] has as its system Escherichia coli MMX102-ATCC 25922. The data set can be described thus: Broth microdilution susceptibility testing (CLSI). Format: cell-based. The following applies: for MIC: Escherichia coli, ATCC25922, read-out: MIC Escherichia coli 102-25922. The method, then:
as §2

Data set [9] has as its system Pseudomonas aeruginosa MMX103-ATCC 27853. The data set can be described thus: Broth microdilution susceptibility testing (CLSI). Format: cell-based. Conditions: Pseudomonas aeruginosa, ATCC27853, read-out: MIC Pseudomonas aeruginosa 103-27853. As to the method:
as §2

The subject of data set [10] is Staphylococcus aureus (MRSA) MMX757. The experiment in a line: Broth microdilution susceptibility testing (CLSI). Format: cell-based. The following applies: Staphylococcus aureus, MRSA, read-out: MIC Staphylococcus aureus (MRSA) 757-NA. As to the method:
as §2

In data set [11] the test system is Staphylococcus aureus MMX100-ATCC 29213. The data set can be described thus: Broth microdilution susceptibility testing (CLSI). Format: cell-based. Conditions: Staphylococcus aureus, ATCC29213, read-out: MIC Staphylococcus aureus 100-29213. The method, then:
as §2

Data set [12] has as its system Streptococcus pneumoniae MMX1195-ATCC 49619. The experiment in a line: Broth microdilution susceptibility testing (CLSI). Format: cell-based. The following applies: Streptococcus pneumoniae, ATCC49619, read-out: MIC Streptococcus pneumoniae 1195-49619. As to the method:
as §2

The nature of another data set: LUV leakage assay. The method, then: Large unilamellar vesicles were prepared by the extrusion technique. Vesicles were made of Di-Palmoyl-Phosphatidyl Choline (DPPC, Avanti Polar Lipids) with or without 0.1 mol % Lipid II. Vesicles were prepared with 50 mM rhodamine, washed with saline solution and purified by G25 Sephadex column (GE healthcare). Compounds were diluted in saline solution in 96-well plate format and vesicles were added to each well. The increase of fluorescence intensity was measured at 612 nm (excitation at 544 nm) on a Molecular Dynamics spectrophotometer at 20 °C. Compound-induced leakage was expressed relative to the total amount of rhodamine released after lysis of the vesicles by addition of 10 µl of 20% Triton X-100.

A short description of data set [13]: NMR interaction with Lipid II. The following applies: 1D proton chemical shift changes on addition to 3-Lipid II. Format: binding. As to the method:
The NMR samples consisted of 0.15 mM Lipid II, 0.15 mM BAS00127538 compound, or 0.15 mM Lipid II+0.15 mM BAS00127538 compound. All samples were dissolved in 90% double distilled H20+10% DMSO, incubated for 30 minutes, freeze-dried, and then dissolved in 300 µL of d6-DMSO. NMR experiments were carried out at 25°C on an 800 MHz Bruker Avance NMR spectrometer (800.27 MHz for protons) equipped with a pulse-field gradient unit, four frequency channels, and a triple resonance TXI cryoprobe (Bruker Biospin, Billerica, MA). 1D proton experiments were collected to probe for chemical shift changes and 2D TOCSY (30, 60, and 90 msec spinlock times), 2D NOESY (150 and 300 msec mixing times), and natural abundance ^13C-HSQC experiments were collected to determine proton and carbon chemical shift assignments.

In the case of `CN1/C(=C/C=C/c2cc(-c3ccccc3)cc(-c3ccccc3)[o+]2)C(C)(C)c2ccccc21` [BAS00127538, 2,4-diphenyl-6-[(1E)-3-[(2E)-1,3,3-trimethyl-2,3-dihydro-1H-indol-2-ylidene]prop-1-en-1-yl]-1$l^4-pyran-1-ylium], in data set [1], the “active against E.coli (IC100%)” value is reported as 7,8 µM. Besides, in [1], the “Bacterial Killing E. coli” value was 7.8 µM. For the same compound, in [2], the “Bacterial Killing S. aureus” value is 0.244 µM. In addition, in data set [3], the IC50 at 24 h turned out to be 2.7 µM. In addition, the IC50 at 4 h in data set [4] was found to be 14.5 µM. In addition, the MIC in data set [5] is 8 µg/mL; in [6], 1 µg/mL; in [7], 1 µg/mL; in [8], 4 µg/mL; in data set [9], over 8 µg/mL; in data set [10], 0.5 µg/mL. Besides, the figures for the minimal inhibitory concentration (MIC) in [11] and in data set [12] were 0.5 µg/mL and 8 µg/mL, respectively. Moreover, the “MIC Escherichia coli 102-25922” value in data set [8] was determined as 4 µg/mL. Moreover, the “leakage of LUVs” value in the data set “LUV leakage assay” (8 µg/ml (16× MIC for S. aureus)) was “significant leakage”. Besides, the “effect of Lipid II on compound-induced lysis of LUVs” value in the data set “LUV leakage assay” (LUVs with vs without Lipid II) is “reduced by the presence of Lipid II”. In addition, the “interaction with Lipid II by NMR” value in [13] is “found to interact”.

For the compound `CN(C)c1ccc(/C=C/c2cc(-c3ccccc3)[o+]c(-c3ccccc3)c2)cc1` [Compound 1499-1221], in data set [1], the “active against E.coli (IC100%)” value was found to be 125 µM. Moreover, the “Bacterial Killing E. coli” value in data set [1] was 125 µM. Also, the “Bacterial Killing S. aureus” value in [2] is 0.031 µM. The IC50 at 24 h in data set [3] turned out to be 8.9 µM. The IC50 at 4 h in data set [4] was 18.6 µM. For the same compound, the MIC in data set [5] is over 8 µg/mL; in data set [6] it was 2 µg/mL; in data set [7], 2 µg/mL; in data set [8], over 16 µg/mL; in [9], over 16 µg/mL; in data set [10], 0.5 µg/mL. Also, the minimal inhibitory concentration (MIC) in [11] was 0.25 µg/mL; in [12] it was over 8 µg/mL. Further, the “membrane rupture in LUVs” value in “LUV leakage assay” (LUVs with or without Lipid II) is given as “significant membrane rupture in LUVs irrespective of Lipid II”. In data set [13], the “interaction with Lipid II by NMR” value was “could not be confirmed”.
